{"source": "patent US11203601B2", "about": "“Tricyclic compounds as glycogen synthase kinase 3 (GSK3) inhibitors and uses thereof” (The Broad Institute, Inc., priority 2017, dated 2021)", "experiment_in_all_cases": "Carna kinome panel", "assay_type_in_all_cases": "biochemical", "key": {"GSK3β": {"molecular_target": "GSK3β (Homo sapiens (Human), UniProt P49841)", "sequence (P49841 whole entry)": "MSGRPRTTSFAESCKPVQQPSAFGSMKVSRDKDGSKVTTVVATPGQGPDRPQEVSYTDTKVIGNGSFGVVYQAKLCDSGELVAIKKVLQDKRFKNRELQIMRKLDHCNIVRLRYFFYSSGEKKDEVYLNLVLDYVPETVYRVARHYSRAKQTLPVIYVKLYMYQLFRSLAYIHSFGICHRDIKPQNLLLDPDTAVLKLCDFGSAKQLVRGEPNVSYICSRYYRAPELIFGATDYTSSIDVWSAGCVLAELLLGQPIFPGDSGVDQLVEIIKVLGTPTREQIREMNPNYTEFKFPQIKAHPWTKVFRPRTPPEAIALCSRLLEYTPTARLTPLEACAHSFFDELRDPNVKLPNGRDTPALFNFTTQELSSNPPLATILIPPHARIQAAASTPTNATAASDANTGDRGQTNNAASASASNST", "method": "A selection of compounds was screened against a selected panel of kinases based on single point inhibitory ability to determine absolute inhibitory activity, leading to selectivity measurements. The assay utilized was identical to that of the single point inhibitory activity determination (MSA) but run in dose response. A solution of 4× inhibitor (5 μL), 4× substrate/ATP Metal solution (5 μL), and 2× Kinase solution (10 μL) was prepared with assay buffer (20 mM HEPES, 0.01% Triton X-100, 2 mM DTT, pH 7.5) and mixed/incubated in 384 well plates for 1 or 5 hours depending on the kinase, at room temperature. A solution of termination buffer (QuickScout Screening assist MSA; Carna Biosciences) (60 μL) was added to each well. The entire reaction mixture was then applied to a LabChip3000 system (Caliper Life Science) and the product and substrate peptide peaks were separated and quantified.\nBriefly, a selection of compounds was screened against a panel of kinases at a single concentration of 10 μM. […] The entire reaction mixture was then applied to a LabChip3000 system (Caliper Life Science), and the product and substrate peptide peaks were separated and quantified. […] The entire reaction mixture was then applied to a LabChip3000 system (Caliper Life Science), and the product and substrate peptide peaks were separated and quantified."}, "CDK4/CycD3": {"molecular_target": "CDK4/CycD3 (Homo sapiens (Human), UniProt P11802)", "conditions": "read-out: % Inhibition at 10 μM of the test compound"}, "TNK1": {"molecular_target": "TNK1 (Homo sapiens (Human), UniProt Q13470)", "conditions": "read-out: % Inhibition at 10 μM of the test compound"}, "CK1δ": {"molecular_target": "CK1δ (Homo sapiens (Human), UniProt P48730)", "sequence (P48730 whole entry)": "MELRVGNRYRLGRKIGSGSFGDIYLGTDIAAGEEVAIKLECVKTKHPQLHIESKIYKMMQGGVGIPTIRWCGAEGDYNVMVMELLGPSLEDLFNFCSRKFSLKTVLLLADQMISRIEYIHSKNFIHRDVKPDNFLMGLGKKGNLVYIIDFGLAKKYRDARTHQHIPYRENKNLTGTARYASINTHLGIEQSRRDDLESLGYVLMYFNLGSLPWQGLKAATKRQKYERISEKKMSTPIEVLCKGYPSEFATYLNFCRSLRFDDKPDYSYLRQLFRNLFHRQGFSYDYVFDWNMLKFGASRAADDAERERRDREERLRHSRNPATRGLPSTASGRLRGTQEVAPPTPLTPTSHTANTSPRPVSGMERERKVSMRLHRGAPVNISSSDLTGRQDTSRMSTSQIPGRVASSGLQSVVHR", "conditions": "read-out: % Inhibition at 10 μM of the test compound"}, "LATS2": {"molecular_target": "LATS2 (Homo sapiens (Human), UniProt Q9NRM7)", "conditions": "read-out: % Inhibition at 10 μM of the test compound"}, "EPHB4": {"molecular_target": "EPHB4 (Homo sapiens (Human), UniProt P54760)", "conditions": "read-out: % Inhibition at 10 μM of the test compound"}, "CK1α": {"molecular_target": "CK1α (Homo sapiens (Human), UniProt P48729)", "conditions": "read-out: % Inhibition at 10 μM of the test compound"}, "MAP2K5_Cascade": {"molecular_target": "MAP2K5_Cascade (Homo sapiens (Human), UniProt Q13163)", "conditions": "read-out: % Inhibition at 10 μM of the test compound"}, "PRKX": {"molecular_target": "PRKX (Homo sapiens (Human), UniProt P51817)", "conditions": "read-out: % Inhibition at 10 μM of the test compound"}, "IKKε": {"molecular_target": "IKKε (Homo sapiens (Human), UniProt Q14164)", "sequence (Q14164 whole entry)": "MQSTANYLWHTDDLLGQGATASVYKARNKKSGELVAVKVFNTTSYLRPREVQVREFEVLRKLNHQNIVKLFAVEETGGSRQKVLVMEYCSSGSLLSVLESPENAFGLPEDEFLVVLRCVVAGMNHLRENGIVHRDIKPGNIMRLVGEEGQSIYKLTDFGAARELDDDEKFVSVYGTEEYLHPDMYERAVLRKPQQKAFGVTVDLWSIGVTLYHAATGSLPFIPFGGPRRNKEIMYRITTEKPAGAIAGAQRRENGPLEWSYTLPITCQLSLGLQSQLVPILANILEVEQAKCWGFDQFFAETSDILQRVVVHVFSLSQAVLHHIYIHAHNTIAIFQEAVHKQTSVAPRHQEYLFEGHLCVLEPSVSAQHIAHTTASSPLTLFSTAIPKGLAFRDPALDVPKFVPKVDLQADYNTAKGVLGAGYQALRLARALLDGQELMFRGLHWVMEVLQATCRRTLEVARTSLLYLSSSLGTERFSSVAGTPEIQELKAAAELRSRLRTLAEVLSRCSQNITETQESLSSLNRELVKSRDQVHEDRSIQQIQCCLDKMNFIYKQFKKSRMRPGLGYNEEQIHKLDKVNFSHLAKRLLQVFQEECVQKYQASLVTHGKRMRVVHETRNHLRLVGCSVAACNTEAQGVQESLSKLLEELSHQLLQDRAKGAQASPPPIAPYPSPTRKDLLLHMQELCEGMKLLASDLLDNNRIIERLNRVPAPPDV", "conditions": "read-out: % Inhibition at 10 μM of the test compound"}, "TYRO3": {"molecular_target": "TYRO3 (Homo sapiens (Human), UniProt Q06418)", "conditions": "read-out: % Inhibition at 10 μM of the test compound"}, "FLT3": {"molecular_target": "FLT3 (Homo sapiens (Human), UniProt P36888)", "conditions": "read-out: % Inhibition at 10 μM of the test compound"}, "FYN(isoform b)": {"molecular_target": "FYN(isoform b) (Homo sapiens (Human), UniProt P06241)", "conditions": "read-out: % Inhibition at 10 μM of the test compound"}, "FYN(isoform a)": {"molecular_target": "FYN(isoform a) (Homo sapiens (Human), UniProt P06241)", "conditions": "read-out: % Inhibition at 10 μM of the test compound"}, "ALK(F1174L)": {"molecular_target": "ALK(F1174L) (Homo sapiens (Human), UniProt Q9UM73, F1174L)", "sequence (Q9UM73 19-1620 F1174L)": "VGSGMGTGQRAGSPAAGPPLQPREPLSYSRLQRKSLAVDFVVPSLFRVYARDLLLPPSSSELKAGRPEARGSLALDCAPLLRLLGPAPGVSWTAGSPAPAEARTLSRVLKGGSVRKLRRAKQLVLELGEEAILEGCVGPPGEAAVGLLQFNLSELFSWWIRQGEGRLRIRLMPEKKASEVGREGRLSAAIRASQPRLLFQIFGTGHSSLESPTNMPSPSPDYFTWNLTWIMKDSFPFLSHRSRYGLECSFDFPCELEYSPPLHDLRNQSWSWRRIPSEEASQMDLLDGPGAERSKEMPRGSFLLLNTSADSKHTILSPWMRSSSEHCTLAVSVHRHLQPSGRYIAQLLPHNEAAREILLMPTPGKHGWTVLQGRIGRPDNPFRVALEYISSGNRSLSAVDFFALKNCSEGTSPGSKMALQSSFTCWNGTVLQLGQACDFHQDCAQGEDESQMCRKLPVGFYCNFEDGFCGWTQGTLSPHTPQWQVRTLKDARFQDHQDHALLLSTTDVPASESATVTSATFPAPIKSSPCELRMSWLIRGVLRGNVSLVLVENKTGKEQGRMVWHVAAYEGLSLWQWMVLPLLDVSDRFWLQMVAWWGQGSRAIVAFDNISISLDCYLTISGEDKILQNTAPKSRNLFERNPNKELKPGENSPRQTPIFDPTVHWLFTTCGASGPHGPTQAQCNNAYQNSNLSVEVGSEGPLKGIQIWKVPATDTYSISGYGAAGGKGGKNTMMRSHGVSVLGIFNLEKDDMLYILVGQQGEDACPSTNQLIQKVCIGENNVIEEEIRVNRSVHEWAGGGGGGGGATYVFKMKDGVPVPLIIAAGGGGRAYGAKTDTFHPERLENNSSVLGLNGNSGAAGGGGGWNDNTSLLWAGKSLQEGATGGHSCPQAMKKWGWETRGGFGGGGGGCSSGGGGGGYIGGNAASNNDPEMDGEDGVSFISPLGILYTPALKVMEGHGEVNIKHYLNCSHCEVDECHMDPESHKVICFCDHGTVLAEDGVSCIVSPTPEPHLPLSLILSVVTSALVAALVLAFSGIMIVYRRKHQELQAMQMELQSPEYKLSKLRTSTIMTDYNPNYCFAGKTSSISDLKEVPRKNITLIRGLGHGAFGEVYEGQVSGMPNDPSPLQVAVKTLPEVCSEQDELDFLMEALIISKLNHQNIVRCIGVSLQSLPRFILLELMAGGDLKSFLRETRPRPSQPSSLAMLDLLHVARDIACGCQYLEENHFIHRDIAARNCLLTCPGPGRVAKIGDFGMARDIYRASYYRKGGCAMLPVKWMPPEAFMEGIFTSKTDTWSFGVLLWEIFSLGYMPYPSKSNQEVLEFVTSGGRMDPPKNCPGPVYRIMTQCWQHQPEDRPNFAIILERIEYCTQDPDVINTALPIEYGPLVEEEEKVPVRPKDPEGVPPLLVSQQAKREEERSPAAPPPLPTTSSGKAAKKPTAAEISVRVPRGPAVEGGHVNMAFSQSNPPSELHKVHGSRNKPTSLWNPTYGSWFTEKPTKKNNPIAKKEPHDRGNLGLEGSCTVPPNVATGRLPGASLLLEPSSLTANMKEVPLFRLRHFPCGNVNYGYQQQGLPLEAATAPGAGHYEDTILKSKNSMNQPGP", "conditions": "read-out: % Inhibition at 10 μM of the test compound"}, "DDR1": {"molecular_target": "DDR1 (Homo sapiens (Human), UniProt Q08345)", "conditions": "read-out: % Inhibition at 10 μM of the test compound"}, "RSK2": {"molecular_target": "RSK2 (Homo sapiens (Human), UniProt P51812)", "conditions": "read-out: % Inhibition at 10 μM of the test compound"}, "CLK2": {"molecular_target": "CLK2 (Homo sapiens (Human), UniProt P49760)", "conditions": "read-out: % Inhibition at 10 μM of the test compound"}, "Erk2": {"molecular_target": "Erk2 (Homo sapiens (Human), UniProt P28482)", "conditions": "read-out: % Inhibition at 10 μM of the test compound"}, "ABL(T315I)": {"molecular_target": "ABL(T315I) (Homo sapiens (Human), UniProt P00519, T315I)", "conditions": "read-out: % Inhibition at 10 μM of the test compound"}, "PIM2": {"molecular_target": "PIM2 (Homo sapiens (Human), UniProt Q9P1W9)", "conditions": "read-out: % Inhibition at 10 μM of the test compound"}, "FMS": {"molecular_target": "FMS (Homo sapiens (Human), UniProt P07333)", "conditions": "read-out: % Inhibition at 10 μM of the test compound"}, "KDR": {"molecular_target": "KDR (Homo sapiens (Human), UniProt P35968)", "conditions": "read-out: % Inhibition at 10 μM of the test compound"}, "KIT(D816E)": {"molecular_target": "KIT(D816E) (Homo sapiens (Human), UniProt P10721, D816E)", "conditions": "read-out: % Inhibition at 10 μM of the test compound"}, "SRPK1": {"molecular_target": "SRPK1 (Homo sapiens (Human), UniProt Q96SB4)", "conditions": "read-out: % Inhibition at 10 μM of the test compound"}, "SPHK2": {"molecular_target": "SPHK2 (Homo sapiens (Human), UniProt Q9NRA0)", "sequence (Q9NRA0 whole entry)": "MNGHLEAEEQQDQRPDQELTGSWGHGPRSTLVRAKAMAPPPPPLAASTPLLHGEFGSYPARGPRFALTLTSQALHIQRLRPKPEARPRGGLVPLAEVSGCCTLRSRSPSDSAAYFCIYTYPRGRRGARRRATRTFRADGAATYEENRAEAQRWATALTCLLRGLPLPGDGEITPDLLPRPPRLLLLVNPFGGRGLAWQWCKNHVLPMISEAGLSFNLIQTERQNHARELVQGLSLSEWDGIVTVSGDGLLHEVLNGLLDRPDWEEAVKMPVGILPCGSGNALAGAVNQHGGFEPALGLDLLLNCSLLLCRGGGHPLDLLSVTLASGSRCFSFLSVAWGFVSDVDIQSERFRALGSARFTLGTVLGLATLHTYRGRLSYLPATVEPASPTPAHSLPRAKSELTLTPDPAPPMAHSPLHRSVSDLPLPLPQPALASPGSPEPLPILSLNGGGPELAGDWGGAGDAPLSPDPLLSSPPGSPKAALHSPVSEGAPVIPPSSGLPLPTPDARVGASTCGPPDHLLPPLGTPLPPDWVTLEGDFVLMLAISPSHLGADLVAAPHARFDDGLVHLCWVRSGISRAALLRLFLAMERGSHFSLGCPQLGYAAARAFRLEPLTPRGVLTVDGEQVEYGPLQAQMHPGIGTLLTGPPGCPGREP", "conditions": "read-out: % Inhibition at 10 μM of the test compound"}, "BTK": {"molecular_target": "BTK (Homo sapiens (Human), UniProt Q06187)", "conditions": "read-out: % Inhibition at 10 μM of the test compound"}, "RET": {"molecular_target": "RET (Homo sapiens (Human), UniProt P07949)", "conditions": "read-out: % Inhibition at 10 μM of the test compound"}, "WNK1": {"molecular_target": "WNK1 (Homo sapiens (Human), UniProt Q9H4A3)", "conditions": "read-out: % Inhibition at 10 μM of the test compound"}, "PDGFRα(D842V)": {"molecular_target": "PDGFRα(D842V) (Homo sapiens (Human), UniProt P16234, D842V)", "conditions": "read-out: % Inhibition at 10 μM of the test compound"}, "HER4": {"molecular_target": "HER4 (Homo sapiens (Human), UniProt Q15303)", "conditions": "read-out: % Inhibition at 10 μM of the test compound"}, "KIT(D816V)": {"molecular_target": "KIT(D816V) (Homo sapiens (Human), UniProt P10721, D816V)", "conditions": "read-out: % Inhibition at 10 μM of the test compound"}, "FGFR1": {"molecular_target": "FGFR1 (Homo sapiens (Human), UniProt P11362)", "conditions": "read-out: % Inhibition at 10 μM of the test compound"}, "PKACγ": {"molecular_target": "PKACγ (Homo sapiens (Human), UniProt P22612)", "conditions": "read-out: % Inhibition at 10 μM of the test compound"}, "TAOK2": {"molecular_target": "TAOK2 (Homo sapiens (Human), UniProt Q9UL54)", "conditions": "read-out: % Inhibition at 10 μM of the test compound"}, "FES": {"molecular_target": "FES (Homo sapiens (Human), UniProt P07332)", "conditions": "read-out: % Inhibition at 10 μM of the test compound"}, "JAK1": {"molecular_target": "JAK1 (Homo sapiens (Human), UniProt P23458)", "sequence (P23458 whole entry)": "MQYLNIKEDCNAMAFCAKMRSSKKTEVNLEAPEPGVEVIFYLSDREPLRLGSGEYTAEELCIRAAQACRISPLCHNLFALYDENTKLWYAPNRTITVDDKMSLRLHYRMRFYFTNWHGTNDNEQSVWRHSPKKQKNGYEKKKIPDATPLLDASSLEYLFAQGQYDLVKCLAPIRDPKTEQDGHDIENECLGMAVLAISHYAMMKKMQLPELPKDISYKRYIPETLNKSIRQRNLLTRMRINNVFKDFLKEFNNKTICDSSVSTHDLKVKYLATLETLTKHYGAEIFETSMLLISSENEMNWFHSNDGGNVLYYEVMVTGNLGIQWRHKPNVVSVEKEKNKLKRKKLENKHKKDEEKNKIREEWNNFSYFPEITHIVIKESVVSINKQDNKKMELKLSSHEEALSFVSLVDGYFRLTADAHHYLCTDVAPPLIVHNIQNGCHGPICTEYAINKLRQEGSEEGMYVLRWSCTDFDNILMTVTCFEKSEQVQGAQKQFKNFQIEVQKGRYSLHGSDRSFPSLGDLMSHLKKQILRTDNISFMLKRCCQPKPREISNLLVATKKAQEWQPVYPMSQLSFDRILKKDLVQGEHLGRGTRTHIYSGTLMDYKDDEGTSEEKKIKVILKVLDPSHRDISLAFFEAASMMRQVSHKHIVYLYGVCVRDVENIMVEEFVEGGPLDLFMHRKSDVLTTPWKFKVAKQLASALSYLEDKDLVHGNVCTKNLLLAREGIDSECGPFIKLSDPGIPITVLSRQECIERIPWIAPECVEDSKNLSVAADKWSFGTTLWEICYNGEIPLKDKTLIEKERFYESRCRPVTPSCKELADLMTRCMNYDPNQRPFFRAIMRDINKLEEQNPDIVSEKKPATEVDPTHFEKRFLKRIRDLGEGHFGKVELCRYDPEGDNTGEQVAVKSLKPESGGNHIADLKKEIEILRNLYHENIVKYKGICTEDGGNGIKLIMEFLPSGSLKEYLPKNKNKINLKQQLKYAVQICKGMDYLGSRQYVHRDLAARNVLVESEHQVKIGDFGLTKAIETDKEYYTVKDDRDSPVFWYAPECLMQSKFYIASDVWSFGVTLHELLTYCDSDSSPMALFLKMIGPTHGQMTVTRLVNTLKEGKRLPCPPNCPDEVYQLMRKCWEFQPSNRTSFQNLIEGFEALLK", "conditions": "read-out: % Inhibition at 10 μM of the test compound"}, "MET(D1228H)": {"molecular_target": "MET(D1228H) (Homo sapiens (Human), UniProt P08581, D1228H)", "conditions": "read-out: % Inhibition at 10 μM of the test compound"}, "MAPKAPK 5": {"molecular_target": "MAPKAPK 5 (Homo sapiens (Human), UniProt Q8IW41)", "conditions": "read-out: % Inhibition at 10 μM of the test compound"}, "MAPKAPK2": {"molecular_target": "MAPKAPK2 (Homo sapiens (Human), UniProt P49137)", "conditions": "read-out: % Inhibition at 10 μM of the test compound"}}}
{"smiles": "CCC1(c2ccccc2)C2=C(CC(C)(C)CC2=O)Nc2ncsc21", "note": "(centres unmarked) [Compound 1, 9-Ethyl-6,6-dimethyl-9-phenyl-5,6,7,9-tetrahydrothiazolo[4,5-b]quinolin-8(4H)-one]", "values": [{"measurement": "IC50", "setting": "GSK3β; GSK3β", "value": 137, "unit": "nM"}, {"measurement": "inhibition at 10 µM", "setting": "GSK3β; read-out: % Inhibition at 10 μM of the test compound", "value": 97.7, "unit": "%"}, {"measurement": "inhibition at 10 µM", "setting": "CDK4/CycD3", "value": 18.1, "unit": "%"}, {"measurement": "inhibition at 10 µM", "setting": "TNK1", "value": 11.7, "unit": "%"}, {"measurement": "inhibition at 10 µM", "setting": "CK1δ", "value": 8.2, "unit": "%"}, {"measurement": "inhibition at 10 µM", "setting": "LATS2", "value": 5.4, "unit": "%"}, {"measurement": "inhibition at 10 µM", "setting": "EPHB4", "value": 5.3, "unit": "%"}, {"measurement": "inhibition at 10 µM", "setting": "CK1α", "value": 4.3, "unit": "%"}, {"measurement": "inhibition at 10 µM", "setting": "MAP2K5_Cascade", "value": 4.3, "unit": "%"}, {"measurement": "inhibition at 10 µM", "setting": "PRKX", "value": 4.2, "unit": "%"}, {"measurement": "inhibition at 10 µM", "setting": "IKKε", "value": 4.2, "unit": "%"}, {"measurement": "inhibition at 10 µM", "setting": "TYRO3", "value": 3.8, "unit": "%"}, {"measurement": "inhibition at 10 µM", "setting": "FLT3", "value": 2.9, "unit": "%"}, {"measurement": "inhibition at 10 µM", "setting": "FYN(isoform b)", "value": 2.4, "unit": "%"}, {"measurement": "inhibition at 10 µM", "setting": "FYN(isoform a)", "value": 1.8, "unit": "%"}, {"measurement": "inhibition at 10 µM", "setting": "ALK(F1174L)", "value": 1.8, "unit": "%"}, {"measurement": "inhibition at 10 µM", "setting": "DDR1", "value": 1.4, "unit": "%"}, {"measurement": "inhibition at 10 µM", "setting": "RSK2", "value": 1.4, "unit": "%"}, {"measurement": "inhibition at 10 µM", "setting": "CLK2", "value": 0.9, "unit": "%"}, {"measurement": "inhibition at 10 µM", "setting": "Erk2", "value": 0.5, "unit": "%"}, {"measurement": "inhibition at 10 µM", "setting": "ABL(T315I)", "value": 0.4, "unit": "%"}, {"measurement": "inhibition at 10 µM", "setting": "PIM2", "value": 0.3, "unit": "%"}, {"measurement": "inhibition at 10 µM", "setting": "FMS", "value": 0.3, "unit": "%"}, {"measurement": "inhibition at 10 µM", "setting": "KDR", "value": 0.2, "unit": "%"}, {"measurement": "inhibition at 10 µM", "setting": "KIT(D816E)", "value": -0.2, "unit": "%"}, {"measurement": "inhibition at 10 µM", "setting": "SRPK1", "value": -0.3, "unit": "%"}, {"measurement": "inhibition at 10 µM", "setting": "SPHK2", "value": -0.8, "unit": "%"}, {"measurement": "inhibition at 10 µM", "setting": "BTK", "value": -1.6, "unit": "%"}, {"measurement": "inhibition at 10 µM", "setting": "RET", "value": -1.9, "unit": "%"}, {"measurement": "inhibition at 10 µM", "setting": "WNK1", "value": -2.1, "unit": "%"}, {"measurement": "inhibition at 10 µM", "setting": "PDGFRα(D842V)", "value": -3.4, "unit": "%"}, {"measurement": "inhibition at 10 µM", "setting": "HER4", "value": -4, "unit": "%"}, {"measurement": "inhibition at 10 µM", "setting": "KIT(D816V)", "value": -4.8, "unit": "%"}, {"measurement": "inhibition at 10 µM", "setting": "FGFR1", "value": -5, "unit": "%"}, {"measurement": "inhibition at 10 µM", "setting": "PKACγ", "value": -5.6, "unit": "%"}, {"measurement": "inhibition at 10 µM", "setting": "TAOK2", "value": -5.9, "unit": "%"}, {"measurement": "inhibition at 10 µM", "setting": "FES", "value": -6.2, "unit": "%"}, {"measurement": "inhibition at 10 µM", "setting": "JAK1", "value": -6.4, "unit": "%"}, {"measurement": "inhibition at 10 µM", "setting": "MET(D1228H)", "value": -7.7, "unit": "%"}, {"measurement": "inhibition at 10 µM", "setting": "MAPKAPK 5", "value": -8.5, "unit": "%"}, {"measurement": "inhibition at 10 µM", "setting": "MAPKAPK2", "value": -13.4, "unit": "%"}]}
